Results: patent publication US11584714B2 (priority 2018, dated 2023)
pKi: −log10 of the molar value. Where a name gives a salt, the structure may show the parent alone. Read-outs that look alike come from different tables or passages of the source.

Key:
Type in all cases: biochemical
human α-thrombin = human α-thrombin (Homo sapiens (Human), UniProt P00734); experiment: Enzymatic assay for thrombin (Boc-VPR-AMC substrate); conditions: for Ki: Thrombin Ki (μM); for pKi: read-out: Thrombin Ki
mMASP-2 = mMASP-2 (Mus musculus (Mouse), UniProt Q91WP0); experiment: Enzymatic inhibition of mMASP-2; conditions: read-out: mMASP-2 Ki
Sequence of mMASP-2 (Q91WP0 20-685): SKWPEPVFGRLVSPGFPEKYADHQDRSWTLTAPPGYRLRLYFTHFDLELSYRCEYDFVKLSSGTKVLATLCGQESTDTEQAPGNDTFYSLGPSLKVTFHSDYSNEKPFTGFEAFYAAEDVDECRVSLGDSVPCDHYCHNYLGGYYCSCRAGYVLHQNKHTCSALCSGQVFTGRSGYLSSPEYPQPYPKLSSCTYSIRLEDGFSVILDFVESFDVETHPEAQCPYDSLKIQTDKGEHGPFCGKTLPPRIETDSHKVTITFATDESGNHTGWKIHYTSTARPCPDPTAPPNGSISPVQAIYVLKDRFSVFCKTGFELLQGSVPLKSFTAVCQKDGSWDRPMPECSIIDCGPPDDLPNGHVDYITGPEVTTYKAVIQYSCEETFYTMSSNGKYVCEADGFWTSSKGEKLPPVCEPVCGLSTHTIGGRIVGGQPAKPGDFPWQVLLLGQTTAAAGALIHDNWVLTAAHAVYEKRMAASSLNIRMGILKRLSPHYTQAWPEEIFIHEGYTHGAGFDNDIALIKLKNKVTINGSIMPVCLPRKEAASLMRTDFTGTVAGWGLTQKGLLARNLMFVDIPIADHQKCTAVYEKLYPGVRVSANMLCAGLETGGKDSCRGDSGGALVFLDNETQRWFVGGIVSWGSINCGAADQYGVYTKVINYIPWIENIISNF

MASP-2 (CCP1-CCP2-SP) = MASP-2 (CCP1-CCP2-SP) (Homo sapiens (Human), UniProt O00187); experiment: biochemical
Sequence of MASP-2 (CCP1-CCP2-SP) (O00187 445-686): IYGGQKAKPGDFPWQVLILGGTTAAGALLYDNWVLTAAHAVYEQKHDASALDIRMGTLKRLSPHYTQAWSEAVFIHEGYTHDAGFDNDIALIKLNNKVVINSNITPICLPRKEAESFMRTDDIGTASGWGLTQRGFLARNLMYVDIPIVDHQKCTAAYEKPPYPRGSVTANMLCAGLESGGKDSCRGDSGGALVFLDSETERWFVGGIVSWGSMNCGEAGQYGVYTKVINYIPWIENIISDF

[1] = selectivity for MASP-2 inhibition versus thrombin
[2] = MASP-2 inhibition versus thrombin

Compound: C[C@H](NC(=O)[C@H]1C[C@H](Cc2ccc(-c3ccc(F)cc3C(N)=O)cc2)CN1)C(=O)NCc1cc(Cl)ccc1-n1cnnn1 [compound 1405, (2R,4S)-4-((2′-Carbamoyl-4′-fluoro-[1,1′-biphenyl]-4-yl)methyl)-N-((S)-1-((5-chloro-2-(1H-tetrazol-1-yl)benzyl)amino)-1-oxopropan-2-yl)pyrrolidine-2-carboxamide Hydrochloride]
- Ki (human α-thrombin): 0.5 to 2.5 µM
- pKi (mMASP-2): 5.60 to 6.30
- pKi (MASP-2 (CCP1-CCP2-SP); read-out: MASP-2 Ki): > 6.30
- MASP-2 vs. thrombin selectivity (MASP-2 (CCP1-CCP2-SP); [1]): ** (≥5.0 to <25-fold)

Compound: Cc1cc(Cl)cc(CNC(=O)[C@H](C)NC(=O)[C@H]2C[C@H](Cc3ccccc3-c3ccc(Cl)s3)CN2)c1O [compound 1408, (2R,4S)—N—((S)-1-((5-Chloro-2-hydroxy-3-methylbenzyl)amino)-1-oxopropan-2-yl)-4-(2-(5-chlorothiophen-2-yl)benzyl)pyrrolidine-2-carboxamide Hydrochloride]
- Ki (human α-thrombin): 2.5 to 10 µM
- pKi (mMASP-2): 5.00 to 5.60
- pKi (MASP-2 (CCP1-CCP2-SP); read-out: MASP-2 Ki): > 6.30
- MASP-2 vs. thrombin selectivity (MASP-2 (CCP1-CCP2-SP); [1]): ** (≥5.0 to <25-fold)

Compound: CC(=O)Nc1ccc(CCN[C@H](CCc2ccccc2)C(=O)N[C@@H](C)C(=O)NCc2ccc(N)nc2C)cc1 [compound 1368, (R)-2-((4-Acetamidophenethyl)amino)-N-((S)-1-(((6-amino-2-methylpyridin-3-yl)methyl)amino)-1-oxopropan-2-yl)-4-phenylbutanamide Dihydrochloride]
- pKi (human α-thrombin): < 4.60
- pKi (mMASP-2): 4.60 to 5.00
- pKi (MASP-2 (CCP1-CCP2-SP)): 5.60 to 6.30
- MASP-2 vs. thrombin selectivity (MASP-2 (CCP1-CCP2-SP); [1]): ** (≥5.0 to <25-fold)

Compound: C[C@H](NC(=O)[C@@H]1C[C@@H](Cc2ccccc2)CN1)C(=O)NCc1ccc(C(=N)N)cc1 [compound 1285, (2S,4R)-4-Benzyl-N-((S)-1-((4-carbamimidoylbenzyl)amino)-1-oxopropan-2-yl)pyrrolidine-2-carboxamide]
- Ki (human α-thrombin): 2.5 to 10 µM
- pKi (mMASP-2): 5.60 to 6.30
- pKi (MASP-2 (CCP1-CCP2-SP)): 5.60 to 6.30
- MASP-2 vs. thrombin selectivity (MASP-2 (CCP1-CCP2-SP); [1]): ** (≥5.0 to <25-fold)

Compound: C[C@H](NC(=O)[C@H]1C[C@H](c2ccccc2)CN1)C(=O)NCc1cnc2cccc(Cl)c2c1 [compound 1457, (2R,4R)—N—((S)-1-(((5-chloroquinolin-3-yl)methyl)amino)-1-oxopropan-2-yl)-4-phenylpyrrolidine-2-carboxamide]
- pKi (human α-thrombin): < 4.60
- pKi (mMASP-2): 5.00 to 5.60
- pKi (MASP-2 (CCP1-CCP2-SP)): 4.60 to 5.00

Compound: COc1cc(CNC(=O)[C@H](C)NC(=O)[C@H](N)CCc2ccccc2)cnc1N [compound 1266, (R)-2-Amino-N—((S)-1-(((6-amino-5-methoxypyridin-3-yl)methyl)amino)-1-oxopropan-2-yl)-4-phenylbutanamide]
- pKi (human α-thrombin): < 4.60
- pKi (mMASP-2): < 4.60
- pKi (MASP-2 (CCP1-CCP2-SP)): 5.60 to 6.30
- MASP-2 vs. thrombin selectivity (MASP-2 (CCP1-CCP2-SP); [1]): ** (≥5.0 to <25-fold)

Compound: C[C@H](NC(=O)[C@H]1C[C@H](c2ccccc2)CCN1)C(=O)NCc1ccc(C(=N)N)cc1 [compound 1485, (2R,4R)—N—((S)-1-((4-carbamimidoylbenzyl)amino)-1-oxopropan-2-yl)-4-phenylpiperidine-2-carboxamide Dihydrochloride]
- pKi (mMASP-2): > 6.30

Compound: C[C@H](NC(=O)C1CCC(c2ccccc2)CN1)C(=O)NCc1ccc(C(=N)N)cc1 (single isomer, unassigned) [compound 1067]
- pKi (mMASP-2): > 6.30

Compound: C[C@H](NC(=O)[C@H]1C[C@@H](c2ccccc2)CCN1)C(=O)NCc1ccc(C(=N)N)cc1 [compound 1065]
- pKi (mMASP-2): > 6.30

Compound: C[C@H](NC(=O)[C@H]1C[C@@H](c2ccccc2)CCN1)C(=O)NCc1ccc(C(=N)N)cc1 [compound 1230, (2R,4S)—N—((S)-1-((4-Carbamimidoylbenzyl)amino)-1-oxopropan-2-yl)-4-phenylpiperidine-2-carboxamide]
- pKi (mMASP-2): > 6.30

Compound: Cc1nc(N)ccc1CNC(=O)[C@H](C)NC(=O)[C@H]1C[C@H](c2cccc3ccccc23)CCN1 [compound 1342, (2R,4R)—N—((S)-1-(((6-Amino-2-methylpyridin-3-yl)methyl)amino)-1-oxopropan-2-yl)-4-(naphthalen-1-yl)piperidine-2-carboxamide Dihydrochloride]
- pKi (mMASP-2): 5.60 to 6.30
- pKi (MASP-2 (CCP1-CCP2-SP); read-out: MASP-2 Ki): > 6.30

Compound: C[C@H](NC(=O)[C@H]1C[C@](O)(c2ccccc2)CCN1)C(=O)NCc1ccc(C(=N)N)cc1 [compound 1101]
- pKi (mMASP-2): > 6.30

Compound: Cc1nc(N)ccc1CNC(=O)[C@H](C)NC(=O)[C@H]1C[C@H](Cc2cccc(C(F)(F)F)c2)CN1 [compound 1318, (2R,4S)—N—((S)-1-(((6-Amino-2-methylpyridin-3-yl)methyl)amino)-1-oxopropan-2-yl)-4-(3-(trifluoromethyl)benzyl)pyrrolidine-2-carboxamide Dihydrochloride]
- pKi (mMASP-2): > 6.30
- pKi (MASP-2 (CCP1-CCP2-SP); read-out: MASP-2 Ki): > 6.30

Compound: Cc1ccc(CC[C@@H](N)C(=O)N[C@@H](C)C(=O)NCc2ccc(C(=N)N)cc2)cc1 [compound 1043]
- pKi (mMASP-2): > 6.30

Compound: C[C@H](NC(=O)c1cc(-c2cccc3ccccc23)c[nH]1)C(=O)NCc1ccc(C(=N)N)cc1 [compound 1234, (S)—N-(1-((4-Carbamimidoylbenzyl)amino)-1-oxopropan-2-yl)-4-(naphthalen-1-yl)-1H-pyrrole-2-carboxamide]
- pKi (mMASP-2): > 6.30
- pKi (MASP-2 (CCP1-CCP2-SP); read-out: MASP-2 Ki): > 6.30

Compound: (2R,4R)-4-([1,1′-Biphenyl]-3-yl)-N-((S)-1-(((6-amino-2-methylpyridin-3-yl)methyl)amino)-1-oxopropan-2-yl)pyrrolidine-2-carboxamide Di-trifluoroacetate salt [compound 1359]
- pKi (mMASP-2): 4.60 to 5.00

Compound: C[C@H](NC(=O)[C@H]1C[C@](O)(c2ccccc2)CN1)C(=O)NCc1ccc(C(=N)N)cc1 [compound 1071]
- pKi (mMASP-2): > 6.30

Compound: C[C@H](OC(=O)[C@H](N)CCc1ccccc1)C(=O)NCc1ccc(C(=N)N)cc1 [compound 1315, (S)-1-((4-Carbamimidoylbenzyl)amino)-1-oxopropan-2-yl (R)-2-amino-4-phenylbutanoate Hydrochloride]
- pKi (mMASP-2): > 6.30
- MASP-2 vs. thrombin selectivity (MASP-2 (CCP1-CCP2-SP); [1]): * (≥1.0 to <5.0-fold)

Compound: C[C@H](NC(=O)[C@H](N)CCc1ccccc1)C(=O)NCCOc1ccc(N)nc1 [compound 1215]
- pKi (human α-thrombin): < 4.60
- pKi (mMASP-2): > 4.60

Compound: Cc1nc(N)ccc1CNC(=O)[C@H](C)NC(=O)[C@H]1C[C@@H](c2cccc3ccccc23)CCN1 [compound 1297, (2R,4S)—N—((S)-1-(((6-Amino-2-methylpyridin-3-yl)methyl)amino)-1-oxopropan-2-yl)-4-(naphthalen-1-yl)piperidine-2-carboxamide Dihydrochloride]
- pKi (mMASP-2): > 6.30
- pKi (MASP-2 (CCP1-CCP2-SP); read-out: MASP-2 Ki): > 6.30

Compound: C[C@H](NC(=O)[C@H](N)CCc1ccccc1)C(=O)NCc1cc(Cl)ccc1-n1cnnn1 [compound 1325, (R)-2-amino-N—((S)-1-((5-chloro-2-(1H-tetrazol-1-yl)benzyl)amino)-1-oxopropan-2-yl)-4-phenylbutanamide]
- pKi (human α-thrombin): > 6.30
- MASP-2 vs. thrombin selectivity (MASP-2 (CCP1-CCP2-SP); [1]): −− (<1.0-fold)

Compound: CCc1ccc(-c2nc3cc(C(=N)N)ccc3[nH]2)nc1 [compound 2007, 2-(5-ethylpyridin-2-yl)-1H-benzo[d]imidazole-5-carboximidamide dihydrochloride]
- pKi (human α-thrombin; +Zn): > 5.60
- Ki (human α-thrombin; +EDTA): > 25 µM
- pKi (MASP-2 (CCP1-CCP2-SP)): < 4.60
- MASP-2 versus thrombin selectivity (MASP-2 (CCP1-CCP2-SP); +Zn): ++ (+Zn) (5.0 to 25-fold)
- pKi (MASP-2 (CCP1-CCP2-SP); +Zn, read-out: MASP-2 Ki): > 6.30

Compound: N=C(N)c1ccc(CNC(=O)[C@@H]2CCN2C(=O)[C@@H](CCc2ccccc2)NCC(=O)O)cc1 [compound 1124]
- pKi (human α-thrombin): > 6.30
- MASP-2 vs. thrombin selectivity (MASP-2 (CCP1-CCP2-SP); [2]): −− (less than 1.0-fold)
- pKi (MASP-2 (CCP1-CCP2-SP); read-out: MASP-2 Ki): > 6.30

Compound: C[C@H](NC(=O)[C@H](N)CCc1ccccc1F)C(=O)NCc1ccc(C(=N)N)cc1 [compound 1049]
- pKi (human α-thrombin): > 6.30
- MASP-2 vs. thrombin selectivity (MASP-2 (CCP1-CCP2-SP); [2]): ** (5.0 to 25-fold)
- pKi (MASP-2 (CCP1-CCP2-SP); read-out: MASP-2 Ki): > 6.30

Compound: N=C(N)c1ccc2[nH]c(-c3ccccn3)nc2c1 [compound 2001, 2-(Pyridin-2-yl)-1H-benzo[d]imidazole-5-carboximidamide Dihydrochloride]
- pKi (human α-thrombin; +Zn): > 5.60
- Ki (human α-thrombin; +EDTA): > 25 µM
- pKi (MASP-2 (CCP1-CCP2-SP)): < 4.60
- MASP-2 versus thrombin selectivity (MASP-2 (CCP1-CCP2-SP); +Zn): ++ (+Zn) (5.0 to 25-fold)
- pKi (MASP-2 (CCP1-CCP2-SP); +Zn, read-out: MASP-2 Ki): > 6.30

Compound: C[C@H](NC(=O)[C@@H](CCc1ccccc1)NCc1ccccc1N1CCN(C)CC1)C(=O)NCc1ccc(C(=N)N)cc1 [compound 1232, (R)—N—((S)-1-((4-Carbamimidoylbenzyl)amino)-1-oxopropan-2-yl)-2-((2-(4-methylpiperazin-1-yl)benzyl)amino)-4-phenylbutanamide]
- pKi (human α-thrombin): > 6.30
- pKi (MASP-2 (CCP1-CCP2-SP)): 5.60 to 6.30
- MASP-2 vs. thrombin selectivity (MASP-2 (CCP1-CCP2-SP); [1]): −− (<1.0-fold)

Compound: Nc1ccc2[nH]c(Cc3nc4cc(N)ccc4[nH]3)nc2c1 [compound 2006]
- pKi (human α-thrombin; +EDTA): < 4.60
- pKi (human α-thrombin; +Zn): < 4.60
- pKi (MASP-2 (CCP1-CCP2-SP)): < 4.60
- MASP-2 versus thrombin selectivity (MASP-2 (CCP1-CCP2-SP); +Zn): + (+Zn) (1.0 to 5.0-fold)
- pKi (MASP-2 (CCP1-CCP2-SP); +Zn, read-out: MASP-2 Ki): > 5.00

Compound: N=C(N)c1ccc(CNC(=O)[C@@H]2CCN2C(=O)[C@H](NCC(=O)O)C2CCCCC2)cc1 [compound 999, melagatran, reference compound]
- pKi (mMASP-2): > 6.30

Compound: C[C@H](NC(=O)[C@@H]1C[C@@H](c2ccccc2)CCN1)C(=O)NCc1ccc(C(=N)N)cc1 [compound 1486, (2S,4S)—N—((S)-1-((4-carbamimidoylbenzyl)amino)-1-oxopropan-2-yl)-4-phenylpiperidine-2-carboxamide Dihydrochloride]
- pKi (mMASP-2): > 6.30

Compound: N=C(N)c1ccc2[nH]c(-c3cccc(-c4ccc(F)cc4)n3)nc2c1 [compound 2016, 2-(6-(4-fluorophenyl)pyridin-2-yl)-benzo[d]imidazole-5-carboximidamide dihydrochloride]
- pKi (human α-thrombin; +EDTA): > 4.60
- pKi (human α-thrombin; +Zn): > 4.60
- pKi (MASP-2 (CCP1-CCP2-SP)): < 4.60
- MASP-2 versus thrombin selectivity (MASP-2 (CCP1-CCP2-SP); +Zn): +++ (+Zn) (25 to 100-fold)
- pKi (MASP-2 (CCP1-CCP2-SP); +Zn, read-out: MASP-2 Ki): > 6.30

Compound: C[C@H](NC(=O)[C@H](N)CCc1ccccc1)C(=O)NCc1ccc2c(N)n[nH]c2c1 [compound 1039]
- pKi (human α-thrombin): < 4.60
- pKi (mMASP-2): > 4.60

Compound: N=C(N)c1ccc(CNC(=O)[C@@H]2CCN2C(=O)[C@H](N)CCc2ccccc2)cc1 [compound 1038]
- pKi (human α-thrombin): > 6.30
- MASP-2 vs. thrombin selectivity (MASP-2 (CCP1-CCP2-SP); [2]): * (1.0 to 5.0-fold)
- pKi (MASP-2 (CCP1-CCP2-SP); read-out: MASP-2 Ki): > 6.30
